Results reported in article PMC11277489, “Novel Piperazine Derivatives of Vindoline as Anticancer Agents” (International Journal of Molecular Sciences, 2024).

What follows are compounds tested on SK-MEL-5 (assay: NCI60 one-dose screen (10 μM), Melanoma). Settings: Homo sapiens, SK-MEL-5, read-out: Growth percent rate.
Assay type: cell-based, human
In the case of `CCC12C=CCN3CC[C@@]4(c5ccc(OC)cc5N(C)[C@H]4[C@@](O)(C(=O)OC)[C@@H]1OC(C)=O)[C@@H]32` (stereo partly shown) [Compound 1, vindoline], the activity at 10 µM was 89.2%.

These compounds were tested on M14 (assay: NCI60 one-dose screen (10 μM), Melanoma). Settings: Homo sapiens, M14, read-out: Growth percent rate.
Assay type: cell-based
`CCC12C=CCN3CC[C@@]4(c5ccc(OC)cc5N(C)[C@H]4[C@@](O)(C(=O)OC)[C@@H]1OC(C)=O)[C@@H]32` (stereo partly shown) [Compound 1, vindoline] gave an activity at 10 µM of 105%.

Each compound was assayed on NCI-H226 (assay: NCI60 one-dose screen (10 μM), Non-small Cell Lung Cancer). Settings: Homo sapiens, NCI-H226, read-out: Growth percent rate.
Assay type: cell-based
`CCC12C=CCN3CC[C@@]4(c5ccc(OC)cc5N(C)[C@H]4[C@@](O)(C(=O)OC)[C@@H]1OC(C)=O)[C@@H]32` (stereo partly shown) [Compound 1, vindoline] showed an activity at 10 µM of 92.3%.

These compounds were tested on PC-3 (assay: NCI60 one-dose screen (10 μM), Prostate Cancer). Settings: Homo sapiens, PC-3, read-out: Growth percent rate.
Assay type: cell-based
Work on `CCC12C=CCN3CC[C@@]4(c5ccc(OC)cc5N(C)[C@H]4[C@@](O)(C(=O)OC)[C@@H]1OC(C)=O)[C@@H]32` (stereo partly shown) [Compound 1, vindoline] yielded an activity at 10 µM of 98.6%.

What follows are compounds tested on SK-OV-3 (assay: NCI60 one-dose screen (10 μM), Ovarian Cancer). Settings: Homo sapiens, SK-OV-3, read-out: Growth percent rate.
Assay type: cell-based
`CCC12C=CCN3CC[C@@]4(c5ccc(OC)cc5N(C)[C@H]4[C@@](O)(C(=O)OC)[C@@H]1OC(C)=O)[C@@H]32` (stereo partly shown) [Compound 1, vindoline] showed an activity at 10 µM of 102%.

Each compound was assayed on MDA-MB-468 (assay: NCI60 one-dose screen (10 μM), Breast Cancer). Settings: Homo sapiens, MDA-MB-468, read-out: Growth percent rate.
Assay type: cell-based
In the case of `CCC12C=CCN3CC[C@@]4(c5ccc(OC)cc5N(C)[C@H]4[C@@](O)(C(=O)OC)[C@@H]1OC(C)=O)[C@@H]32` (stereo partly shown) [Compound 1, vindoline], the activity at 10 µM was 134%.

Each compound was assayed on HOP-92 (assay: NCI60 one-dose screen (10 μM), Non-small Cell Lung Cancer). Settings: Homo sapiens, HOP-92, read-out: Growth percent rate.
Assay type: cell-based
`CCC12C=CCN3CC[C@@]4(c5ccc(OC)cc5N(C)[C@H]4[C@@](O)(C(=O)OC)[C@@H]1OC(C)=O)[C@@H]32` (stereo partly shown) [Compound 1, vindoline] was tested, and the activity at 10 µM was 109%.

Each compound was assayed on MDA-MB-231/ATCC (assay: NCI60 one-dose screen (10 μM), Breast Cancer). Settings: Homo sapiens, MDA-MB-231, read-out: Growth percent rate.
Assay type: cell-based, human
`CCC12C=CCN3CC[C@@]4(c5ccc(OC)cc5N(C)[C@H]4[C@@](O)(C(=O)OC)[C@@H]1OC(C)=O)[C@@H]32` (stereo partly shown) [Compound 1, vindoline] was tested, and the activity at 10 µM was 113%.

What follows are compounds tested on OVCAR-5 (assay: NCI60 one-dose screen (10 μM), Ovarian Cancer). Settings: Homo sapiens, OVCAR-5, read-out: Growth percent rate.
Assay type: cell-based
Work on `CCC12C=CCN3CC[C@@]4(c5ccc(OC)cc5N(C)[C@H]4[C@@](O)(C(=O)OC)[C@@H]1OC(C)=O)[C@@H]32` (stereo partly shown) [Compound 1, vindoline] yielded an activity at 10 µM of 107%.

What follows are compounds tested on BT-549 (assay: NCI60 one-dose screen (10 μM), Breast Cancer). Settings: Homo sapiens, BT-549, read-out: Growth percent rate.
Assay type: cell-based
`CCC12C=CCN3CC[C@@]4(c5ccc(OC)cc5N(C)[C@H]4[C@@](O)(C(=O)OC)[C@@H]1OC(C)=O)[C@@H]32` (stereo partly shown) [Compound 1, vindoline] was tested, and the activity at 10 µM was 106%.

These compounds were tested on HCC-2998 (assay: NCI60 one-dose screen (10 μM), Colon Cancer). Settings: Homo sapiens, HCC 2998, read-out: Growth percent rate.
Assay type: cell-based
`CCC12C=CCN3CC[C@@]4(c5ccc(OC)cc5N(C)[C@H]4[C@@](O)(C(=O)OC)[C@@H]1OC(C)=O)[C@@H]32` (stereo partly shown) [Compound 1, vindoline] gave an activity at 10 µM of 101%.

These compounds were tested on HT29 (assay: NCI60 one-dose screen (10 μM), Colon Cancer). Settings: Homo sapiens, HT-29, read-out: Growth percent rate.
Assay type: cell-based
`CCC12C=CCN3CC[C@@]4(c5ccc(OC)cc5N(C)[C@H]4[C@@](O)(C(=O)OC)[C@@H]1OC(C)=O)[C@@H]32` (stereo partly shown) [Compound 1, vindoline] gave an activity at 10 µM of 108%.

Each compound was assayed on UO-31 (assay: NCI60 one-dose screen (10 μM), Renal Cancer). Settings: Homo sapiens, UO-31, read-out: Growth percent rate.
Assay type: cell-based
`CCC12C=CCN3CC[C@@]4(c5ccc(OC)cc5N(C)[C@H]4[C@@](O)(C(=O)OC)[C@@H]1OC(C)=O)[C@@H]32` (stereo partly shown) [Compound 1, vindoline] showed an activity at 10 µM of 84.6%.

Each compound was assayed on NCI/ADR-RES (assay: NCI60 one-dose screen (10 μM), Ovarian Cancer). Settings: Homo sapiens, read-out: Growth percent rate.
Assay type: cell-based
`CCC12C=CCN3CC[C@@]4(c5ccc(OC)cc5N(C)[C@H]4[C@@](O)(C(=O)OC)[C@@H]1OC(C)=O)[C@@H]32` (stereo partly shown) [Compound 1, vindoline] gave an activity at 10 µM of 107%.

Each compound was assayed on SNB-19 (assay: NCI60 one-dose screen (10 μM), CNS Cancer). Settings: Homo sapiens, SNB-19, read-out: Growth percent rate.
Assay type: cell-based
In the case of `CCC12C=CCN3CC[C@@]4(c5ccc(OC)cc5N(C)[C@H]4[C@@](O)(C(=O)OC)[C@@H]1OC(C)=O)[C@@H]32` (stereo partly shown) [Compound 1, vindoline], the activity at 10 µM was 102%.

What follows are compounds tested on DU-145 (assay: NCI60 one-dose screen (10 μM), Prostate Cancer). Settings: Homo sapiens, DU-145, read-out: Growth percent rate.
Assay type: cell-based
`CCC12C=CCN3CC[C@@]4(c5ccc(OC)cc5N(C)[C@H]4[C@@](O)(C(=O)OC)[C@@H]1OC(C)=O)[C@@H]32` (stereo partly shown) [Compound 1, vindoline] was tested, and the activity at 10 µM was 119%.
